Among the data in ChEMBL document CHEMBL1142573, “Suaveolindole, a new mass-limited antibacterial indolosesquiterpene from Greenwayodendron suaveolens obtained via high-throughput natural products chemistry methods” (2005) are MIC values, retold here.

What all share (assay type): functional
One assay concerns Bacillus subtilis. Briefly: Antimicrobial activity against Bacillus subtilis ATCC 43223.
Assay [1] has as its system Staphylococcus aureus. Briefly: Antimicrobial activity against Staphylococcus aureus ATTC 6538P.
The test system of assay [2] is Staphylococcus aureus. In words: Antimicrobial activity against methicillin-resistant Staphylococcus aureus ATTC 33591.
Another assay concerns Enterococcus faecalis. In words: Antimicrobial activity against vancomycin-resistant Enterococcus faecalis VRE ATCC 51575.
The next assay deals with Klebsiella pneumoniae. In words: Antimicrobial activity against Klebsiella pneumoniae ATCC 10031.
The subject of the next assay is Pseudomonas aeruginosa. In words: Antimicrobial activity against Pseudomonas aeruginosa ATCC 9027.

In brackets after ≈: the same amount, converted by molar mass. Bounds are passed on as bounds.

Take `CC(C)=C1CC[C@@H](C)[C@@](C)(Cc2c[nH]c3ccccc23)[C@@H]1CCC(=O)O` [SUAVEOLINDOLE]: the MIC with Bacillus subtilis was 4 µg/mL (≈ 11.3 µM); in the assay on Staphylococcus aureus [1] it was 8 µg/mL (≈ 22.6 µM); in the assay with Staphylococcus aureus [2], 8 µg/mL (≈ 22.6 µM); against Enterococcus faecalis, greater than 32 µg/mL; against Klebsiella pneumoniae, greater than 128 µg/mL; in the assay on Pseudomonas aeruginosa, greater than 128 µg/mL.
